Assay results from patent US20100298141A1, “SUBSTITUTED PYRIDINE N-OXIDE HERBICIDES” (E. I. DU PONT DE NEMOURS AND COMPANY, priority 2007, published 2010).

Columns and labels:
[1] = test system: crabgrass; assay: Test C pre-/postemergence test; format: in vivo, Digitaria sanguinalis
Procedure, shortened: (§1)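 Compounds in a non-phytotoxic solvent with surfactant applied preemergence to seeded pots and, at the same time, postemergence to plants 2–18 cm tall (1- to 4-leaf stage). Paddy tests: pots flooded to 3 cm, compound applied into the water, depth held throughout.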

[2] = test system: Surinam grass; assay: Test C pre-/postemergence test; format: in vivo, Brachiaria decumbens
Procedure, shortened: as §1

[3] = test system: soybean; assay: Test C pre-/postemergence test; format: in vivo, Glycine max
Procedure, shortened: as §1

[4] = test system: velvetleaf; assay: Test A pre-/postemergence greenhouse test; format: in vivo, Abutilon theophrasti; details: for Velvetleaf plant response rating: 0 to 100 scale; for Plant response rating, Velvetleaf: 0 to 100 scale where 0 is no effect and 100 is complete control
Procedure, shortened: (§2)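 Greenhouse herbicide screen, pre- and postemergence in parallel. Soil: loam plus sand. Formulation: non-phytotoxic solvent mix with surfactant. Postemergence stage: one to two leaves, 2–10 cm height. Evaluation: visual injury, compared with untreated controls, about 10 days after treatment.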

[5] = test system: corn; assay: Test A pre-/postemergence greenhouse test; format: in vivo, Zea mays; details: for Corn plant response rating: 0 to 100 scale; for Plant response rating, Corn: 0 to 100 scale where 0 is no effect and 100 is complete control
Procedure, shortened: as §2

[6] = test system: giant foxtail; assay: Test C pre-/postemergence test; format: in vivo, Setaria faberii
Procedure, shortened: as §1

[7] = test system: downy brome; assay: Test C pre-/postemergence test; format: in vivo, Bromus tectorum
Procedure, shortened: as §1

[8] = test system: rice; assay: Test C flooded paddy test; format: in vivo, Oryza sativa; details: Flood
Procedure, shortened: (§3)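 Pots were flooded to 3 cm above the soil surface at treatment, compound applied directly to the paddy water, and that depth held throughout. Plants were kept in a greenhouse for 13 to 15 days, then visually rated against untreated controls.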

[9] = test system: johnsongrass; assay: Test C pre-/postemergence test; format: in vivo, Sorghum halepense
Procedure, shortened: as §1

[10] = test system: wheat; assay: Test A pre-/postemergence greenhouse test; format: in vivo, Triticum aestivum; details: for Wheat plant response rating: 0 to 100 scale; for Plant response rating, Wheat: 0 to 100 scale where 0 is no effect and 100 is complete control
Procedure, shortened: as §2

[11] = test system: catchweed bedstraw; assay: Test C pre-/postemergence test; format: in vivo, Galium aparine; details: Preemergence
Description: Seeds of plant species selected from blackgrass (Alopecurus myosuroides), downy brome (Bromus tectorum), green foxtail (Setaria viridis), Italian ryegrass (Lolium multiflorum), wheat (Triticum aestivum), wild oat (Avena fatua), catchweed bedstraw (Galium aparine), Russian thistle (Salsola kali), […] (Cynodon dactylon), Surinam grass (Brachiaria decumbens), cocklebur (Xanthium strumarium), corn (Zea mays), crabgrass (Digitaria sanguinalis), woolly cupgrass (Eriochloa villosa), giant foxtail (Setaria faberii), Goosegrass (Eleusin indica), johnsongrass (Sorghum halepense), kochia (Kochia scoparia), lambsquarters (Chenopodium album), morningglory (Ipomoea coccinea), eastern black nightshade (Solanum ptycanthum), yellow nutsedge (Cyperus esculentus), pigweed (Amaranthus retroflexus), common ragweed (Ambrosia elation), soybean (Glycine max), common (oilseed) sunflower (Helianthus annuus), and velvetleaf (Abutilon theophrasti) were planted and treated preemergence with test chemicals formulated in a non-phytotoxic solvent mixture which included a surfactant. At the same time, plants selected from these crop and weed species and also winter barley (Hordeum vulgare), canarygrass (Phalaris minor), and chickweed (Stellaria media) were treated with postemergence applications of some of the test chemicals formulated in the same manner. Plants ranged in height from 2 to 18 cm (1- to 4-leaf stage) for postemergence treatments. […] At time of treatment, test pots were flooded to 3 cm above the soil surface, treated by application of test compounds directly to the paddy water, and then maintained at that water depth for the duration of the test. […] A dash (-) response means no test result.

[12] = test system: barnyardgrass; assay: Test C flooded paddy test; format: in vivo, Echinochloa crus-galli; details: Flood
Procedure, shortened: as §3

[13] = test system: bermudagrass; assay: Test C pre-/postemergence test; format: in vivo, Cynodon dactylon
Procedure, shortened: as §1

[14] = test system: pigweed; assay: Test C pre-/postemergence test; format: in vivo, Amaranthus retroflexus
Procedure, shortened: as §1

[15] = test system: giant foxtail; assay: Test A pre-/postemergence greenhouse test; format: in vivo, Setaria faberi; details: for Foxtail, Giant plant response rating: 0 to 100 scale; for Plant response rating, Foxtail, Giant: 0 to 100 scale where 0 is no effect and 100 is complete control
Procedure, shortened: as §2

[16] = test system: lambsquarters; assay: Test C pre-/postemergence test; format: in vivo, Chenopodium album
Procedure, shortened: as §1

[17] = test system: morningglory; assay: Test C pre-/postemergence test; format: in vivo, Ipomoea coccinea; details: Postemergence; for Plant response rating, Morningglory: scale 0 to 100, 0 no effect, 100 complete control
Procedure, shortened: as §1

[18] = 62 g ai/ha, Preemergence, scale 0 to 100
[19] = Preemergence, 31 g ai/ha, scale 0 to 100 (0 no effect, 100 complete control)
[20] = Postemergence, 125 g ai/ha, 0 is no effect, 100 is complete control
[21] = Postemergence, 500 g ai/ha, 0 is no effect, 100 is complete control
[22] = Preemergence, 125 g ai/ha, 0 no effect, 100 complete control
[23] = preemergence, 125 g ai/ha, scale 0 (no effect) to 100 (complete control)
[24] = 31 g ai/ha, scale 0 to 100 (0 no effect, 100 complete control)
[25] = 62 g ai/ha, scale 0 to 100, 0 no effect, 100 complete control, 13 to 15 days
[26] = 125 g ai/ha, scale 0 to 100, 0 no effect, 100 complete control, 13 to 15 days
[27] = 250 g ai/ha, scale 0 to 100, 0 no effect, 100 complete control, 13 to 15 days
[28] = Postemergence, 62 g ai/ha, scale 0 to 100, 0 no effect, 100 complete control
[29] = Postemergence, 125 g ai/ha, scale 0 to 100, 0 no effect, 100 complete control
[30] = Postemergence, 250 g ai/ha, scale 0 to 100, 0 no effect, 100 complete control
[31] = 62 g ai/ha, scale 0 to 100 (0 no effect, 100 complete control)

SMILES: Cn1nc(C(F)(F)F)c(C[S+]([O-])c2cc(C(F)(F)F)cc[n+]2[O-])c1Cl (racemic) [Compound 34]
- Crabgrass, Large plant response rating [1, 18]: 100
- Plant response rating, Crabgrass, Large [1, 19]: 98
- Plant response rating (0 to 100), Crabgrass, Large ([1]; Preemergence, 250 g ai/ha): 100
- Surinam Grass plant response rating [2, 18]: 0
- Plant response rating, Surinam Grass [2, 19]: 0
- Soybean plant response rating [3, 18]: 0
- Plant response rating, Soybean [3, 19]: 0
- Velvetleaf plant response rating [4, 20]: 30
- Velvetleaf plant response rating [4, 21]: 60
- Velvetleaf plant response rating [4, 22]: 30
- Plant response rating, Velvetleaf ([4]; Preemergence, 500 g ai/ha): 60
- Corn plant response rating [5, 20]: 0
- Corn plant response rating [5, 21]: 20
- Corn plant response rating [5, 22]: 0
- Plant response rating, Corn ([5]; Preemergence, 500 g ai/ha): 0
- Foxtail, Giant plant response rating [6, 18]: 20
- Plant response rating, Foxtail, Giant [6, 19]: 20
- Plant response rating (0 to 100), Foxtail, Giant ([6]; Preemergence, 250 g ai/ha): 50
- Bromegrass, Downy plant response rating [7, 18]: 0
- Plant response rating, Bromegrass, Downy [7, 19]: 0
- Plant response rating (0 to 100), Bromegrass, Downy ([7]; Preemergence, 250 g ai/ha): 20
- Bromegrass, Downy plant response rating [7, 23]: 20
- Plant response rating, Rice [8, 24]: 0
- Plant response rating, Rice [8, 25]: 0
- Plant response rating, Rice [8, 26]: 0
- Plant response rating, Rice [8, 27]: 40
- Johnsongrass plant response rating [9, 18]: 85
- Plant response rating, Johnsongrass [9, 19]: 85
- Plant response rating (0 to 100), Johnsongrass ([9]; Preemergence, 250 g ai/ha): 100
- Wheat plant response rating [10, 20]: 0
- Wheat plant response rating [10, 21]: 0
- Wheat plant response rating [10, 22]: 30
- Plant response rating, Wheat ([10]; Preemergence, 500 g ai/ha): 50
- Plant response rating, Galium [11, 24]: 0
- Plant response rating (0 to 100), Galium ([11]; 250 g ai/ha): 100
- Plant response rating, Barnyardgrass [12, 24]: 0
- Plant response rating, Barnyardgrass [12, 25]: 0
- Plant response rating, Barnyardgrass [12, 26]: 0
- Plant response rating, Barnyardgrass [12, 27]: 30
- Bermudagrass plant response rating ([13]; 62 g ai/ha, Preemergence, scale 0 to 100 (0 no effect, 100 complete control)): 100
- Plant response rating, Bermudagrass [13, 19]: 75
- Plant response rating (0 to 100), Bermudagrass ([13]; Preemergence, 250 g ai/ha): 100
- Bermudagrass plant response rating [13, 23]: 100
- Pigweed plant response rating [14, 18]: 100
- Plant response rating, Pigweed [14, 19]: 100
- Foxtail, Giant plant response rating [15, 20]: 10
- Foxtail, Giant plant response rating [15, 21]: 60
- Foxtail, Giant plant response rating [15, 22]: 100
- Plant response rating, Foxtail, Giant ([15]; Preemergence, 500 g ai/ha): 100
- Lambsquarters plant response rating [16, 18]: 50
- Plant response rating, Lambsquarters [16, 19]: 0

SMILES: Cn1nc(C(F)(F)F)c(C[S+]([O-])c2cccc[n+]2[O-])c1OCC(F)(F)C(F)(F)F (centres unmarked) [Compound 78]
- Plant response rating (0 to 100), Crabgrass, Large ([1]; Postemergence, 31 g ai/ha): 0
- Plant response rating, Crabgrass, Large [1, 28]: 0
- Plant response rating, Crabgrass, Large [1, 29]: 0
- Plant response rating, Crabgrass, Large [1, 30]: 20
- Plant response rating (0 to 100), Surinam Grass ([2]; Postemergence, 31 g ai/ha): 0
- Plant response rating (0 to 100), Surinam Grass ([2]; Postemergence, 62 g ai/ha): 0
- Plant response rating, Surinam Grass [2, 29]: 0
- Plant response rating, Surinam Grass [2, 30]: 70
- Plant response rating (0 to 100), Soybean ([3]; Postemergence, 62 g ai/ha): 20
- Plant response rating, Soybean [3, 29]: 60
- Plant response rating, Soybean [3, 30]: 65
- Plant response rating, Velvetleaf ([4]; Postemergence, 125 g ai/ha): 30
- Velvetleaf plant response rating [4, 21]: 70
- Velvetleaf plant response rating [4, 22]: 0
- Plant response rating, Velvetleaf ([4]; Preemergence, 500 g ai/ha): 90
- Plant response rating, Corn ([5]; Postemergence, 125 g ai/ha): 20
- Corn plant response rating [5, 21]: 40
- Corn plant response rating [5, 22]: 30
- Plant response rating, Corn ([5]; Preemergence, 500 g ai/ha): 90
- Plant response rating (0 to 100), Foxtail, Giant ([6]; Postemergence, 31 g ai/ha): 0
- Plant response rating, Foxtail, Giant [6, 28]: 0
- Plant response rating, Foxtail, Giant [6, 29]: 45
- Plant response rating, Foxtail, Giant [6, 30]: 45
- Plant response rating (0 to 100), Bromegrass, Downy ([7]; Postemergence, 31 g ai/ha): 0
- Plant response rating, Bromegrass, Downy [7, 28]: 0
- Plant response rating, Bromegrass, Downy [7, 29]: 0
- Plant response rating, Bromegrass, Downy [7, 30]: 0
- Plant response rating, Rice [8, 31]: 10
- Plant response rating, Rice [8, 27]: 70
- Plant response rating (0 to 100), Johnsongrass ([9]; Postemergence, 31 g ai/ha): 0
- Plant response rating, Johnsongrass [9, 28]: 0
- Plant response rating, Johnsongrass [9, 29]: 0
- Plant response rating, Johnsongrass [9, 30]: 45
- Plant response rating, Wheat ([10]; Postemergence, 125 g ai/ha): 30
- Wheat plant response rating [10, 21]: 60
- Wheat plant response rating [10, 22]: 30
- Plant response rating, Wheat ([10]; Preemergence, 500 g ai/ha): 100
- Plant response rating, Barnyardgrass [12, 31]: 0
- Plant response rating, Barnyardgrass [12, 27]: 50
- Plant response rating (0 to 100), Morningglory ([17]; 31 g ai/ha): 0
- Plant response rating, Morningglory ([17]; 62 g ai/ha): 0
- Plant response rating, Morningglory ([17]; 125 g ai/ha): 0
- Plant response rating, Morningglory ([17]; 250 g ai/ha): 0
- Plant response rating (0 to 100), Bermudagrass ([13]; Postemergence, 31 g ai/ha): 0
- Plant response rating, Bermudagrass [13, 28]: 0
- Plant response rating, Bermudagrass [13, 29]: 0
- Plant response rating, Bermudagrass [13, 30]: 0
- Plant response rating (0 to 100), Pigweed ([14]; Postemergence, 31 g ai/ha): 0
- Plant response rating (0 to 100), Pigweed ([14]; Postemergence, 62 g ai/ha): 0
- Plant response rating, Pigweed [14, 29]: 30
- Plant response rating, Pigweed [14, 30]: 35
- Plant response rating, Foxtail, Giant ([15]; Postemergence, 125 g ai/ha): 80
- Foxtail, Giant plant response rating [15, 21]: 80
- Foxtail, Giant plant response rating [15, 22]: 90
- Plant response rating, Foxtail, Giant ([15]; Preemergence, 500 g ai/ha): 100
- Plant response rating (0 to 100), Lambsquarters ([16]; Postemergence, 31 g ai/ha): 0
- Plant response rating, Lambsquarters [16, 28]: 0
- Plant response rating, Lambsquarters [16, 29]: 0
- Plant response rating, Lambsquarters [16, 30]: 0
